Laboratory results published in article PMC6079455, “Discovery of Novel Caeridins from the Skin Secretion of the Australian White's Tree Frog, Litoria caerulea” (International Journal of Genomics, 2018).
Ends that are not written are not given here.

What was measured:
C. albicans NCYC1467 = assay: Antimicrobial test (broth microdilution); format: cell-based, Candida albicans
Method: (§1) The antimicrobial activities were tested by the broth microdilution method and evaluated by the determination of MIC values against different tested microorganisms, the Gram-positive bacteria, S. aureus (NCTC 10788), E. faecalis (NCTC12697), and MRSA (NCTC 12493); the Gram-negative bacterium, E. coli (NCTC 10418); and the yeast, C. albicans (NCYC 1467). The microorganisms were cultured to their log phase in MHB and diluted to 5 × 10^5 CFU/ml then subsequently treated with peptide solutions of gradient concentrations. After incubation at 37°C overnight, the growth of microorganisms was detected at a wavelength of 550 nm using a Synergy HT plate reader (Biolise BioTek ELx808, Winooski, VT, USA). The MICs were determined as the lowest concentration of peptide where […].

MRSA NCTC12493 = assay: Antimicrobial test (broth microdilution); format: cell-based, methicillin-resistant S. aureus
Method: as §1

S. aureus = assay: Membrane permeability on S. aureus (SYTOX Green); format: cell-based, Staphylococcus aureus; details: 2 h, 37°C, 1 × 10^8 CFU/ml, relative to 70% isopropanol
Method: The cell membrane permeability of S. aureus was tested with SYTOX Green Nucleic Acid Stain (Life Technologies, Carlsbad, CA, USA). The log-phase S. aureus was pelleted and suspended in 5% TSB in 0.85% NaCl solution to achieve 1 × 10^8 CFU/ml cells which was then treated with peptide solutions at 37°C for 2 h. The maximum membrane-compromised S. aureus was produced by 70% isopropanol treatment. Subsequently, cells were mixed with 5 μM SYTOX Green stain and incubated in the dark for 10 min. The fluorescence was measured in a 37°C Synergy HT plate reader (Biolise BioTek ELx808, Winooski, VT, USA) at excitation and emission wavelengths of 480 nm and 528 nm, respectively. The membrane permeability was calculated as (1) Membrane permeability%=F−F0/F1−F0×100%, where F represents the processed fluorescence intensity with peptide treatments, F0 represents the processed fluorescence intensity of untreated S. aureus, and F1 represents the processed fluorescence intensity in the maximum membrane-compromised S. aureus (70% isopropanol-treated). The fluorescence intensities of background were subtracted prior to calculation.

[1] = MHB, 5 × 10^5 CFU/ml, 37°C overnight, 550 nm

GLFDIVGKLLGGLGL-NH2 [Caeridin-a1]
MFC (C. albicans NCYC1467): 64 µM | MIC (C. albicans NCYC1467; [1]): 32 µM | MBC (MRSA NCTC12493): 32 µM | MIC (MRSA NCTC12493; [1]): 16 µM | membrane permeability of S. aureus at MBC (S. aureus; peptide at its MBC): massively compromised | membrane permeability of S. aureus at MIC (S. aureus; peptide at its MIC): remained intact
